Here are results for four compounds from ChEMBL document CHEMBL3797190, “Development of 3,5-Dinitrobenzylsulfanyl-1,3,4-oxadiazoles and Thiadiazoles as Selective Antitubercular Agents Active Against Replicating and Nonreplicating Mycobacterium tuberculosis” (J Med Chem, 2016).

Data set [1] relates to Mycobacterium tuberculosis. The data set can be described thus: Antimycobacterial activity against Mycobacterium tuberculosis CNCTC My 331/88 after 14 days by microdilution method. The conditions noted are these: CNCTC My 331/88, 336 h. Format: functional. On the technique in general: Dilution methods test growth across graded concentrations, often in twofold steps.
Data set [2] relates to Mycobacterium avium. The experiment in a line: Antimycobacterial activity against Mycobacterium avium CNCTC My 330/88 after 14 days by microdilution method. Format: functional. The conditions noted are these: CNCTC My 330/88, 336 h.
In data set [3] the test system is Mycobacterium kansasii. The experiment in a line: Antimycobacterial activity against Mycobacterium kansasii CNCTC My 235/80 after 14 days by microdilution method. Format: functional. The following applies: CNCTC My 235/80, 336 h.
Data set [4] relates to Mycobacterium kansasii. The experiment in a line: Antimycobacterial activity against Mycobacterium kansasii CNCTC My 6509/96 after 14 days by microdilution method. Format: functional. The conditions noted are these: CNCTC My 6509/96, 336 h.
The test system of data set [5] is Mycobacterium tuberculosis. The experiment in a line: Antimycobacterial activity against Mycobacterium tuberculosis CNCTC My 331/88 after 21 days by microdilution method. The data set is classed as functional. The conditions noted are these: CNCTC My 331/88, 504 h.
Data set [6] has as its system Mycobacterium avium. The experiment in a line: Antimycobacterial activity against Mycobacterium avium CNCTC My 330/88 after 21 days by microdilution method. The following applies: CNCTC My 330/88, 504 h. The data set is classed as functional.
Data set [7] relates to Mycobacterium kansasii. The experiment in a line: Antimycobacterial activity against Mycobacterium kansasii CNCTC My 235/80 after 21 days by microdilution method. The data set is classed as functional. The following applies: CNCTC My 235/80, 504 h.
In data set [8] the test system is Mycobacterium kansasii. The data set can be described thus: Antimycobacterial activity against Mycobacterium kansasii CNCTC My 6509/96 after 21 days by microdilution method. Format: functional. The following applies: CNCTC My 6509/96, 504 h.
For data set [9], the system named is Mycobacterium kansasii. The experiment in a line: Antimycobacterial activity against Mycobacterium kansasii CNCTC My 235/80 after 7 days by microdilution method. The data set is classed as functional. The conditions noted are these: CNCTC My 235/80, 168 h.
For data set [10], the system named is Mycobacterium kansasii. The data set can be described thus: Antimycobacterial activity against Mycobacterium kansasii CNCTC My 6509/96 after 7 days by microdilution method. The data set is classed as functional. The following applies: CNCTC My 6509/96, 168 h.
Data set [11] can be described thus: Cytotoxicity against human HuH7 cells assessed as cell viability after 24 hrs by MTS assay. The data set is classed as cell-based. The conditions noted are these: Huh-7, 24 h. For orientation: Tetrazolium assays rely on reduction of a dye to a coloured formazan, in cell work by metabolically active cells.
Data set [12] relates to HeLa. The experiment in a line: Cytotoxicity against human HeLa cells assessed as cell viability after 24 hrs by MTS assay. Format: cell-based.
The test system of data set [13] is HeLa. The data set can be described thus: Cytotoxicity against human HeLa cells assessed as cell viability after 48 hrs by MTS assay. The data set is classed as cell-based.
The nature of data set [14]: Cytotoxicity against MDCK2-MDR1 cells assessed as cell viability after 24 hrs by MTS assay. The data set is classed as ADME, cell-based. The conditions noted are these: Canis lupus familiaris, MDCK-II.
Data set [15] is described as follows: Cytotoxicity against MDCK2-MDR1 cells assessed as cell viability after 48 hrs by MTS assay. The data set is classed as ADME, cell-based. The following applies: Canis lupus familiaris, MDCK-II.
The nature of data set [16]: Cytotoxicity against human HuH7 cells assessed as cell viability at 20 uM after 24 hrs by MTS assay. The following applies: read-out: Activity. Format: cell-based, Huh-7.
A short description of data set [17]: Cytotoxicity against human HuH7 cells assessed as cell viability at 20 uM after 48 hrs by MTS assay. The data set is classed as cell-based, Huh-7. The conditions noted are these: read-out: Activity.
A short description of data set [18]: Cytotoxicity against human HeLa cells assessed as cell viability at 20 uM after 24 hrs by MTS assay. The following applies: read-out: Activity. Format: cell-based.
The nature of data set [19]: Cytotoxicity against human HeLa cells assessed as cell viability at 20 uM after 48 hrs by MTS assay. The conditions noted are these: read-out: Activity. Format: cell-based.
Data set [20] in a line: Cytotoxicity against MDCK2-MDR1 cells assessed as cell viability at 20 uM after 24 hrs by MTS assay. The data set is classed as ADME, cell-based, Canis lupus familiaris, MDCK-II. The conditions noted are these: dog, read-out: Activity.
Data set [21] in a line: Cytotoxicity against MDCK2-MDR1 cells assessed as cell viability at 20 uM after 48 hrs by MTS assay. Format: ADME, cell-based, Canis lupus familiaris, MDCK-II. The conditions noted are these: dog, read-out: Activity.
Data set [22] deals with Salmonella typhimurium. The data set can be described thus: Mutagenic activity in Salmonella typhimurium TA100 assessed as reverse mutation at 30 uM by Ames test. Format: toxicity, organism-based. The following applies: salmonella enterica subsp. enterica serovar typhimurium. For orientation: The Ames test detects mutagens through reverse mutation in bacteria.
The test system of data set [23] is Salmonella typhimurium. The experiment in a line: Mutagenic activity in Salmonella typhimurium TA98 assessed as reverse mutation at 30 uM by Ames test. The following applies: salmonella enterica subsp. enterica serovar typhimurium. Format: toxicity, organism-based.
Data set [24] can be described thus: Cytotoxicity against human HuH7 cells assessed as cell viability after 48 hrs by MTS assay. Format: cell-based. The conditions noted are these: Huh-7, 48 h.
The subject of another data set is Candida albicans. The experiment in a line: Antifungal activity against Candida albicans ATCC 44859 after 24 to 48 hrs by broth microdilution method. Format: functional.
The test system of a further data set is Candida tropicalis. The experiment in a line: Antifungal activity against Candida tropicalis 156 after 24 to 48 hrs by broth microdilution method. The data set is classed as functional.
The next data set relates to Pichia kudriavzevii. The data set can be described thus: Antifungal activity against Candida krusei E28 after 24 to 48 hrs by broth microdilution method. Format: functional.
Another data set concerns Nakaseomyces glabratus. The data set can be described thus: Antifungal activity against Candida glabrata 20/I after 24 to 48 hrs by broth microdilution method. Format: functional.
Another data set relates to Trichosporon asahii. The data set can be described thus: Antifungal activity against Trichosporon asahii 1188 after 24 to 48 hrs by broth microdilution method. The data set is classed as functional.
Another data set relates to Aspergillus fumigatus. The experiment in a line: Antifungal activity against Aspergillus fumigatus 231 after 24 to 48 hrs by broth microdilution method. Format: functional.
The test system of another data set is Lichtheimia corymbifera. The experiment in a line: Antifungal activity against Absidia corymbifera 272 after 24 to 48 hrs by broth microdilution method. The data set is classed as functional.
In data set [25] the test system is Trichophyton mentagrophytes. The experiment in a line: Antifungal activity against Trichophyton mentagrophytes 445 after 72 to 120 hrs by broth microdilution method. Format: functional.
Data set [26] relates to Staphylococcus aureus. The experiment in a line: Antibacterial activity against Staphylococcus aureus ATCC 6538 after 24 to 48 hrs by broth microdilution method. Format: functional.
Data set [27] has as its system Staphylococcus aureus. The data set can be described thus: Antibacterial activity against methicillin-resistant Staphylococcus aureus H 5996/08 after 24 to 48 hrs by broth microdilution method. The data set is classed as functional.
Data set [28] has as its system Staphylococcus epidermidis. The data set can be described thus: Antibacterial activity against Staphylococcus epidermidis H 6966/08 after 24 to 48 hrs by broth microdilution method. Format: functional.
A further data set has as its system Enterococcus faecalis. The data set can be described thus: Antibacterial activity against Enterococcus faecalis J 14365/08 after 24 to 48 hrs by broth microdilution method. The data set is classed as functional.
For the next data set, the system named is Escherichia coli. The experiment in a line: Antibacterial activity against Escherichia coli ATCC 8739 after 24 to 48 hrs by broth microdilution method. The data set is classed as functional.
The subject of data set [29] is Klebsiella pneumoniae. The data set can be described thus: Antibacterial activity against Klebsiella pneumoniae D 11750/08 after 24 to 48 hrs by broth microdilution method. The data set is classed as functional.
For data set [30], the system named is Klebsiella pneumoniae. The experiment in a line: Antibacterial activity against ESBL producing Klebsiella pneumoniae J 14368/08 after 24 to 48 hrs by broth microdilution method. The data set is classed as functional.
The subject of another data set is Pseudomonas aeruginosa. The experiment in a line: Antibacterial activity against Pseudomonas aeruginosa ATCC 9027 after 24 to 48 hrs by broth microdilution method. Format: functional.

≈ marks a conversion by molar mass, not a printed value.

Consider `O=[N+]([O-])c1cc(CSc2nnc(-c3ccccc3)s2)cc([N+](=O)[O-])c1`, for which the MIC99 (in general, the lowest concentration that inhibits either 99% of growth or 99% of the strains tested, depending on the study) in [1] was 0.06 µM (≈ 0.0225 µg/mL); with Mycobacterium avium [2] it was 8 µM (≈ 3 µg/mL); in the data set on Mycobacterium kansasii [3] it was 0.5 µM (≈ 0.187 µg/mL); in the data set on Mycobacterium kansasii [4], 0.5 µM (≈ 0.187 µg/mL); in [5], 0.125 µM (≈ 0.0468 µg/mL); in the data set with Mycobacterium avium [6], 16 µM (≈ 5.99 µg/mL). Moreover, the MIC99 worked out at 1 µM (≈ 0.374 µg/mL) in the data set with Mycobacterium kansasii [7], 1 µM (≈ 0.374 µg/mL) with Mycobacterium kansasii [8], 0.25 µM (≈ 0.0936 µg/mL) against Mycobacterium kansasii [9] and 0.25 µM (≈ 0.0936 µg/mL) in the data set on Mycobacterium kansasii [10]. The IC50 (in general, the concentration at which inhibition is half-maximal) in data set [11] was > 20 µM; in the data set on HeLa [12], > 20 µM; with HeLa [13] it was 2.4 µM; in data set [14] it was > 20 µM; in [15], 3.1 µM. Also, the values for the viability at 24 h, 20 µM in data set [16], in data set [18] and in data set [20] were 84.3%, 78.5% and 97.8%, respectively. Besides, the results for the viability at 48 h, 20 µM in data set [17], in [19] and in data set [21] were 36.3%, 15.9% and 7.3%, respectively. The Activity result in the data set with Salmonella typhimurium [22] and in the data set with Salmonella typhimurium [23] was “Non-toxic” each time.

On to `COc1ccc(-c2nnc(SCc3cc([N+](=O)[O-])cc([N+](=O)[O-])c3)s2)cc1`, for which the MIC99 in data set [1] came out at 0.125 µM (≈ 0.0506 µg/mL); in the data set on Mycobacterium avium [2], 8 µM (≈ 3.24 µg/mL); against Mycobacterium kansasii [3] it was 1 µM (≈ 0.404 µg/mL); with Mycobacterium kansasii [4], 1 µM (≈ 0.404 µg/mL); in [5], 0.125 µM (≈ 0.0506 µg/mL); in the data set with Mycobacterium avium [6], 16 µM (≈ 6.47 µg/mL). The MIC99 in the data set on Mycobacterium kansasii [7] came out at 1 µM (≈ 0.404 µg/mL); in the data set on Mycobacterium kansasii [8] it was 1 µM (≈ 0.404 µg/mL); in the data set with Mycobacterium kansasii [9], 0.25 µM (≈ 0.101 µg/mL); with Mycobacterium kansasii [10], 0.25 µM (≈ 0.101 µg/mL). Moreover, the IC50 was > 20 µM in [11]; > 20 µM in data set [24]; > 20 µM in the data set with HeLa [12]; 4.4 µM in the data set on HeLa [13]; > 20 µM in data set [14]; > 20 µM in data set [15]. The results for the viability at 24 h, 20 µM in data set [16], in data set [18] and in [20] were 95.4%, 88% and 101%, respectively. Besides, the viability at 48 h, 20 µM in [17] came to 84.2%; in data set [19], 27.1%; in [21] it was 60%. Also, the MIC80 in the data set on Candida albicans, with Candida tropicalis, in the data set with Pichia kudriavzevii, against Nakaseomyces glabratus and in the data set with Trichosporon asahii was > 125 µM each time. Further, the MIC50 (in the data set with Aspergillus fumigatus; against Lichtheimia corymbifera; in data set [25]) was > 125 µM throughout. The MIC95 (against Staphylococcus aureus [26]; in the data set on Staphylococcus aureus [27]; in data set [28]; with Enterococcus faecalis; against Escherichia coli; in the data set with Klebsiella pneumoniae [29]) was > 125 µM in each case. The MIC95 against Klebsiella pneumoniae [30] and in the data set with Pseudomonas aeruginosa was > 125 µM each time.

Turning to `[N-]=[N+]=[N-].[Na+]` [SODIUM AZIDE], the Activity result with Salmonella typhimurium [22] is reported as “Toxic”.

The compound `COc1ccc(-c2nnc(SCc3cc([N+](=O)[O-])cc([N+](=O)[O-])c3)o2)cc1` had an MIC99 with Mycobacterium kansasii [8] of 0.5 µM (≈ 0.194 µg/mL). Also, the IC50 in [11] was > 20 µM; in the data set with HeLa [12], > 20 µM; in [14], > 20 µM; in data set [15], 10.6 µM. Besides, the figures for the viability at 24 h, 20 µM in [16], in [18] and in [20] were 91.6%, 83.9% and 80.6%, respectively. The viability at 48 h, 20 µM in [17] worked out at 34.1%; in data set [19] it was 37.3%; in data set [21] it was 14.5%.
